Legend:
Assay type in all cases: cell-based, human
[1] = system: normal person-derived intestinal organoids; test: Organoid reconstitution assay, normal person-derived organoids
Experimental: (§1) In order to evaluate the organoid-forming ability of intestinal crypts obtained from normal persons and patients with Crohn's disease, 100 intestinal crypts per 25 μL of Matrigel were dispensed into maintenance medium. The culture medium was changed once every two days. The number of viable organoids and enteroids per well was counted under a microscope (CK40, Olympus). The organoid-forming efficiency was calculated as the ratio of available organoids per 100 intestinal crypts. The organoid reconstitution rate was calculated by counting the number of organoids on day 4 and the number of organoids on day 10. Statistical analysis was performed by ANOVA using Bonferroni's multiple comparison test (* p<0.05, ** p<0.01 and *** p<0.001).
(§2) Normal person-derived organoids were cultured in a maintenance medium for 2 days to obtain a stable number of organoids, and then the medium was replaced with a differentiation medium every 2 days. For each experimental group, human recombinant TNFα and PGE2 (Cayman Chemical Company) or infliximab were added to the culture medium every day. The organoid reconstitution rate was calculated by comparing the number of organoids on day 4 and the number of organoids on day 10.

[2] = system: Crohn's disease patient-derived intestinal organoids; test: Organoid reconstitution assay, Crohn's disease patient-derived organoids
Experimental: as §1, §2
(§3) FIGS. 20 and 21 show the results of analyzing the changes in organoid reconstitution rate and cell viability of TNFα-treated Crohn's disease patient-derived organoids by infliximab and PGE2. Cases in need of actual infliximab treatment or potential PGE2 treatment are Crohn's disease patients, and based on the information obtained from the normal person-derived organoids, the effects of infliximab and PGE2 on Crohn's disease patient-derived organoids with reduced intestinal epithelial regeneration ability were evaluated.

[3] = system: normal person-derived intestinal organoids; test: MTT assay (cell viability), normal person-derived organoids
Experimental: (§4) To evaluate the cell viability of organoids, 100 μL of basal medium containing MTT (3-[4,5-dimethylthiazol-2-yl]-2,5-diphenyltetrazolium bromide) (Sigma-Aldrich) at a concentration of 500 μg/ml was added to each well of a culture plate and incubated for 2 hours at 37° C. To remove the medium and dissolve the Matrigel, 10 μL of 21 SDS (sodium dodecyl sulfate) solution was added thereto, followed by incubation for 2 hours. After adding 100 μL of detergent reagent, the organoids were further incubated for 1 hour, and the absorbance was measured at 562 nm for quantification. Statistical analysis was performed by ANOVA using Bonferroni's multiple comparison test (* p<0.05, ** p<0.01 and *** p<0.001).
(§5) To evaluate cell viability, MTT assay was performed in the same manner as in Experimental Example 2. Statistical analysis was performed by ANOVA using Bonferroni's multiple comparison test (* p<0.05, ** p<0.01 and *** p<0.001).

[4] = system: Crohn's disease patient-derived intestinal organoids; test: MTT assay (cell viability), Crohn's disease patient-derived organoids
Experimental: as §4, §5, §3

[5] = system: Crohn's disease patient-derived organoids; test: Wound healing assay, two-dimensional Crohn's disease patient-derived organoid monolayers
Experimental: (§6) For matrix coating, each well of the 24-well plate was coated at 37° C. for 1 hour with 500 μL of Matrigel diluted at a concentration of 51 in the basal medium. For two-dimensional culture, organoids in the three-dimensional culture were digested into single cells using TrypLE Express (Thermo Fisher). The digested cells were resuspended in the basal medium and seeded into Matrigel-coated wells.
(§7) For wound healing assay, 5×10^4 cells were seeded in wells of a 24-well plate containing inserts of CytoSelect™ 24-Well Wound Healing Assay. The two-dimensional organoid monolayers were cultured in maintenance medium until confluence was reached. The inserts were then carefully removed to produce 0.9-mm-diameter wounds, and 500 μL of fresh differentiation medium was added to each well. Then, the cells in the wound were monitored using a phase-contrast microscope at 0, 4, 8, 16, and 24 hours. At each time point, the area of the non-healed wound was measured in 3 different regions. Statistical analysis was performed by ANOVA using Bonferroni's multiple comparison test (* p<0.05, ** p<0.01 and *** p<0.001).
In addition, wound healing assay was performed in the same manner as in Experimental Example 7.
For the Crohn's disease patient-derived organoids of each experimental group, 30 ng/mL of human recombinant TNFα, or 10 nM of PGE2, and 1 or 10 μg/mL of infliximab were added to the culture medium daily. Statistical analysis was performed by ANOVA using Bonferroni's multiple comparison test (** p<0.01 and *** p<0.001).

[6] = system: LGR5; test: qPCR for LGR5 in Crohn's disease patient-derived organoids; settings: TNFα 0, 30 or 100 ng/mL + high concentration (infliximab 10 μg/mL or PGE2 10 nM)
Experimental: For the Crohn's disease patient-derived organoids of each experimental group, 0, 30 or 100 ng/mL of human recombinant TNFα, 0, 5 or 10 nM of PGE2, and 0, 1 or 10 μg/mL of infliximab were added to the culture medium daily.
Total RNA was extracted from intestinal organoids using the RNeasy Mini Kit (QIAGEN). One-step qPCR was performed using the following primers together with One Step PrimeScript™ III RT-qPCR Mix (Takara): LGR5 primers (forward: 5′-[…]-3′, reverse: 5′-[…]-3′). Statistical analysis was performed by ANOVA using Bonferroni's multiple comparison test (* p<0.05 and *** p<0.001).

[7] = system: LGR5; test: FACS analysis for LGR5 in Crohn's disease patient-derived organoids; settings: 30 ng/mL TNFα + high concentration (infliximab 10 μg/mL or PGE2 10 nM)
Experimental: For the Crohn's disease patient-derived organoids of each experimental group, 30 ng/mL of human recombinant TNFα, or 10 nM of PGE2, and 1 or 10 μg/mL of infliximab were added to the culture medium daily.
To prepare single-cell suspensions from organoids, organoids were incubated with TrypLE Express in a water bath at 37° C. for 30 minutes. Then, the cells were washed with basal medium and collected by filtration through a 40-μm cell strainer. Flow cytometry for detecting the marker was performed using 1×10^5 cells. Cells were incubated with human Lgr5/GPR49 antibody (R&D Systems) in FACS buffer for 30 min. Unbound antibodies were washed out, and the cells were incubated with Alexa Fluor 488-conjugated anti-mouse immunoglobulin G secondary antibody (Thermo Fisher) for 30 minutes. The cells were then washed, resuspended in FACS buffer, and analyzed on the FACS Aria III instrument (BD Biosciences) to evaluate LGR5+ ISCs population.

[8] = system: normal person-derived organoids; test: EdU assay (cell proliferation), normal person-derived organoids; settings: 30 ng/mL TNFα vs TNFα-untreated
Experimental: (§8) To evaluate the cell proliferation of organoids, each organoid was incubated for 2 hours in a medium containing 10 μM of EdU (5-ethynyl-2′-deoxyuridine) (Abcam), and then fixed with cold 41 paraformaldehyde (Biosesang). EDU incorporation in DNA was detected using Click-iT™ EdU Alexa Fluor® 488 imaging kit (Thermo Fisher). The number of EDU positive (+) cells in the organoids was counted using a confocal microscope (LSM 800, Carl Zeiss). Statistical analysis was performed by ANOVA using Bonferroni's multiple comparison test (* p<0.05 and *** p<0.001).

[9] = system: Crohn's disease patient-derived organoids; test: EdU assay (cell proliferation), Crohn's disease patient-derived organoids; settings: 30 ng/mL TNFα; vs normal person-derived organoids
Experimental: as §8

[10] = system: normal person-derived organoids; test: Wound healing assay, two-dimensional normal person-derived organoid monolayers; settings: TNFα-treated; 0-24 hours
Experimental: as §6, §7

[11] = system: normal person-derived organoids; test: Double immunofluorescence for CC3 and TUNEL, normal person-derived organoids; settings: 30 ng/mL TNFα vs TNFα-untreated
Experimental: (§9) Cell death by TNFα occurs through apoptosis or necroptosis. CC3 (cleaved caspase-3) is a marker capable of detecting cells in which apoptosis has occurred, and TUNEL staining can detect DNA fragmented due to apoptosis, and thus detect cells in which apoptosis or necroptosis has occurred. Therefore, CC3+ and TUNEL+ cells are cells in which apoptosis has occurred, and CC3− and […] cells are cells in which necroptosis has occurred.
(§10) CC3 staining was performed using primary rabbit antibodies specific for CC3 and a goat anti-rabbit secondary antibody conjugated to Alexa 594 fluorochrome (red fluorescence). In TUNEL staining, In Situ Cell Death Detection Kit (Merck) was used for the same sections in CC3 staining, and then fluorescein-labeled dUTP (green fluorescence) was used. DAPI was used to stain intracellular DNA. Statistical analysis was performed by ANOVA using Bonferroni's multiple comparison test (*** p<0.001).

[12] = system: Crohn's disease patient-derived organoids; test: Double immunofluorescence for CC3 and TUNEL, Crohn's disease patient-derived organoids; settings: 30 ng/mL TNFα; vs normal person-derived organoids
Experimental: as §9, §10

[13] = system: LGR5; test: Immunohistochemistry, LGR5+ cells per organoid, normal person-derived organoids; settings: TNFα-treated vs TNFα-untreated
Experimental: (§11) After removing the culture medium, the organoids were washed with PBS and fixed in cold 4% paraformaldehyde at room temperature for 30 minutes. The fixed organoids were washed with PBS and embedded in HistoGel (Thermo Fisher). HistoGel blocks were used for paraffin embedding and sectioned for histologic examination and IHC. Histologic evaluation was performed using hematoxylin-eosin-stained sections. After heating-induced epitope retrieval with citrate buffer, IHC was performed using the following antibodies: cleaved caspase-3 (Asp175, 1:200 dilution, Cell Signaling), E-cadherin (1:100 dilution, Abcam), and LGR5 (1:400 dilution, Abcam). The number of LGR5+ cells per organoid in each of the TNFα-treated group (n=10) and the TNFα-untreated group (n=10) was counted, and statistical analysis was performed by ANOVA using Bonferroni's multiple comparison test (*** p<0.001).

[14] = system: LGR5; test: Immunohistochemistry, LGR5+ cells per organoid, Crohn's disease patient-derived organoids; settings: TNFα-treated; vs normal person-derived organoids
Experimental: as §11

[15] = TNFα 30 and 100 ng/mL + high concentration (infliximab 10 μg/mL or PGE2 10 nM)
[16] = 30 or 100 ng/mL TNFα + high concentration (infliximab 10 μg/mL, PGE2 10 nM)
[17] = 30 ng/mL TNFα + high concentration (infliximab 10 μg/mL or PGE2 10 nM), after 16 hours
[18] = 0, 30 and 100 ng/mL TNFα, dependence on concentration
[19] = 30 or 100 ng/mL human recombinant TNFα
[20] = 30 ng/mL TNFα vs TNFα-untreated

Molecule: CCCCC[C@H](O)/C=C/[C@H]1[C@H](O)CC(=O)[C@@H]1C/C=C\CCCC(=O)O [PGE2, prostaglandin E2]
- organoid reconstitution rate ([1]; 100 ng/mL TNFα + 10 nM PGE2): significantly improved compared to when the organoids were not treated with PGE2
- organoid reconstitution rate [1, 15]: the restoration of the organoid reconstitution rates was improved
- organoid reconstitution rate [2, 16]: levels similar to those of TNFα-untreated normal person-derived organoids
- cell viability (MTT) ([3]; 100 ng/mL TNFα + 10 nM PGE2): significantly improved compared to when the organoids were not treated with PGE2
- cell viability (MTT) [4, 16]: levels similar to those of TNFα-untreated normal person-derived organoids
- unhealed wound area [5, 17]: reduced, compared to when the organoids were treated with TNFα alone
- LGR5 expression (qPCR) [6]: increased
- LGR5 expression (FACS, LGR5+ ISCs population) [7]: increased

Molecule: TNFα
- organoid reconstitution rate [1, 18]: decreased
- organoid reconstitution rate ([1]; 30 ng/mL TNFα vs not treated, differentiation medium 10 days, jejunum and ileum): decreased
- organoid reconstitution rate ([2]; 30 ng/mL TNFα, differentiation medium 10 days, jejunum and ileum): decreased compared to those of the normal person-derived organoids
- organoid reconstitution rate [2, 19]: decreased in a concentration-dependent manner
- cell viability (MTT) [3, 18]: also decreased
- cell viability (MTT) [3, 20]: decreased in both the jejunum and the ileum
- cell viability (MTT) [4, 20]: decreased in both the jejunum and the ileum
- apoptosis [4, 19]: increased in a concentration-dependent manner
- unhealed wound area ([5]; TNFα alone, 0-24 hours): no significant decrease in the unhealed wound area even over time
- number of EdU+ cells [8]: TNFα-untreated organoids increased compared to that in TNFα-treated organoids
- number of EdU+ cells [9]: decreased compared to that of the normal person-derived organoids
- unhealed wound area [10]: the wound area was recovered after 16 hours
- number of CC3−, TUNEL+ and CC3+, TUNEL+ cells (cell death) [11]: increased
- number of CC3−, TUNEL+ and CC3+, TUNEL+ cells (cell death) [12]: necroptosis more actively occurred than that in the normal person-derived organoids
- number of LGR5+ cells per organoid [13]: increased
- number of LGR5+ cells per organoid [14]: decreased in the Crohn's disease patient-derived organoids compared to the normal person-derived organoids

Molecule: infliximab
- organoid reconstitution rate [1, 15]: the restoration of the organoid reconstitution rates was improved
- organoid reconstitution rate [2, 16]: levels similar to those of TNFα-untreated normal person-derived organoids
- organoid reconstitution rate ([2]; TNFα + low concentration infliximab (1 μg/mL) alone): did not completely restore
- cell viability (MTT) [4, 16]: levels similar to those of TNFα-untreated normal person-derived organoids
- unhealed wound area [5, 17]: reduced, compared to when the organoids were treated with TNFα alone
- LGR5 expression (qPCR) [6]: no difference in LGR5 expression depending on the concentration of TNFα
- LGR5 expression (FACS, LGR5+ ISCs population) [7]: no difference in LGR5 expression from when the organoids were treated with TNFα
